Assays:
Assay type in all cases: in vivo
Parameters in all cases: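 grade 0 to 5 of growth suppression where 5 is 90% or more and 0 below 10%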
[1] = test system: Amaranthus viridis L.; assay: Herbicidal effects in upland field soil treatment (Test Example 2); conditions: 1000 g active ingredient per hectare, 21st day after treatment, criteria of Table 138
How it was run: (§1)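 Herbicidal effect graded 21 days after treatment, plants kept in greenhouse. Treatment was a soil-surface spray of wettable powder in water, 1000 g a.i./ha in 1000 L/ha, applied after sowing and covering seeds.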

[2] = test system: Abutilon theophrasti medicus; assay: as above; conditions: 1000 g active ingredient per hectare, 21st day after treatment, criteria of Table 138
How it was run: as §1

[3] = test system: Amaranthus viridis L.; assay: Herbicidal effects in upland field foliar treatment (Test Example 3); conditions: criteria of Table 138; for herbicidal effect (index) on Amaranthus viridis L.: 1000 g active ingredient per hectare, 14th day after treatment; for herbicidal effects on Amaranthus viridis L.: 1000 g of the active ingredient per hectare, 14th day after the treatment, wettable powder
Experimental: (§2) Test Example 3 Test on Herbicidal Effects in Upland Field Foliar Treatment A 80-cm^2 plastic pot was filled with upland field soil. Seeds of Echinochloa crus-galli (L.) P. Beauv. var. crus-galli, Abutilon theophrasti medicus and Amaranthus viridis L. were sowed, and the plants were grown for two weeks in a greenhouse. A wettable powder formulation prepared according to Preparation Example 1 was diluted with water, and was sprayed with a small sprayer to perform foliar application over the entirety of plants from the upper side, in an amount equivalent to 1000 liters per hectare, such that 1000 g of the active ingredient per hectare was applied. Thereafter, the plants were grown in a greenhouse, and on the 14th day after the treatment, the herbicidal effects were investigated according to the criteria described in the Table 138 shown above.

[4] = test system: Echinochloa crus-galli (L.) P. Beauv. var. crus-galli; assay: as above; conditions: criteria of Table 138; for herbicidal effect (index) on Echinochloa crus-galli (L.) P. Beauv. var. crus-galli: 1000 g active ingredient per hectare, 14th day after treatment; for herbicidal effects on Echinochloa crus-galli (L.) P. Beauv. var. crus-galli: 1000 g of the active ingredient per hectare, 14th day after the treatment, wettable powder
Experimental: as §2

[5] = test system: Abutilon theophrasti medicus; assay: as above; conditions: criteria of Table 138; for herbicidal effect (index) on Abutilon theophrasti medicus: 1000 g active ingredient per hectare, 14th day after treatment; for herbicidal effects on Abutilon theophrasti medicus: 1000 g of the active ingredient per hectare, 14th day after the treatment, wettable powder
Experimental: as §2

[6] = test system: Echinochloa oryzicola Vasing; assay: Herbicidal effects in paddy field soil treatment (Test Example 1); conditions: paddy field soil treatment; 1000 g of the active ingredient per hectare; wettable powder added dropwise on water surface; 21st day after treatment
How it was run: (§3)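 Application rate 1000 g a.i./ha, delivered as water-diluted wettable powder onto flooded (3 cm) paddy soil one day after sowing. Plants kept in a greenhouse and evaluated for herbicidal effect on day 21 post-treatment.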

[7] = test system: Scirpus juncoides Roxb. var. ohwianus. T. Koyama; assay: as above; conditions: paddy field soil treatment; 1000 g of the active ingredient per hectare; wettable powder added dropwise on water surface; 21st day after treatment
How it was run: as §3

[8] = test system: Monochoria vaginalis (Burm. f.) Presl var. plantaginea (Roxb.) Solms-Laub.; assay: as above; conditions: paddy field soil treatment; 1000 g of the active ingredient per hectare; wettable powder added dropwise on water surface; 21st day after treatment
How it was run: as §3

Row | Structure (SMILES) | herbicidal effect (index) on Amaranthus viridis L. [1] | herbicidal effect (index) on Abutilon theophrasti medicus [2] | herbicidal effect (index) on Amaranthus viridis L. [3] | herbicidal effect (index) on Echinochloa crus-galli (L.) P. Beauv. var. crus-galli [4] | herbicidal effect (index) on Abutilon theophrasti medicus [5] | Herbicidal effects index, Echinochloa oryzicola Vasing [6] | Herbicidal effects index, Scirpus juncoides Roxb. var. ohwianus. T. Koyama [7] | Herbicidal effects index, Monochoria vaginalis (Burm. f.) Presl var. plantaginea (Roxb.) Solms-Laub. [8] | herbicidal effects on Amaranthus viridis L. [3] | herbicidal effects on Echinochloa crus-galli (L.) P. Beauv. var. crus-galli [4] | herbicidal effects on Abutilon theophrasti medicus [5]
1 | Cn1c(=O)c(C(=O)C2=C(O)C3CCC(C3)C2=O)nc2ccccc21 (centres unmarked) [I-5] | 5 | 5 | 5 | 4 | 5 | – | – | – | – | – | –
2 | CCCOc1cccc(-n2c(=O)c(C(=O)C3=C(O)CCCC3=O)nc3ccccc32)c1 [II-71] | – | – | – | – | – | 4 | 5 | 5 | 5 | 4 | 5
3 | CS(=O)(=O)c1cccc(-n2c(=O)c(C(=O)C3=C(O)CCCC3=O)nc3ccccc32)c1 [II-124] | – | – | – | – | – | 4 | 5 | 5 | 5 | 5 | 4
4 | O=C1CCCC(O)=C1C(=O)c1nc2ccccc2n(Cc2cccc(Cl)c2)c1=O [I-112] | – | – | 5 | 4 | 5 | 5 | 5 | 5 | – | – | –
5 | O=C1CCCC(O)=C1C(=O)c1nc2ccccc2n(C2CCS(=O)(=O)C2)c1=O (centres unmarked) [I-137] | – | – | 5 | 4 | 5 | 5 | 5 | 5 | – | – | –
6 | CN(C)c1ccc(-n2c(=O)c(C(=O)C3=C(O)CCCC3=O)nc3ccccc32)cc1 [II-210] | – | – | – | – | – | 5 | 5 | 5 | 5 | 4 | 5
7 | O=C1CCCC(O)=C1C(=O)c1nc2ccccc2n(Cc2ccccc2Cl)c1=O [I-111] | – | – | 5 | 5 | 5 | 5 | 5 | 5 | – | – | –
8 | C#CCn1c(=O)c(C(=O)C2=C(O)CCCC2=O)nc2ccccc21 [I-35] | – | – | 5 | 4 | 5 | 5 | 5 | 5 | – | – | –
9 | CC(C)Oc1cccc(-n2c(=O)c(C(=O)C3=C(O)CCCC3=O)nc3ccccc32)c1 [II-74] | – | – | – | – | – | 5 | 5 | 5 | 4 | 3 | 4
10 | C[S+]([O-])CCOCn1c(=O)c(C(=O)C2=C(O)CCCC2=O)nc2ccccc21 (centres unmarked) [I-67] | – | – | 5 | 4 | 5 | 4 | 5 | 5 | – | – | –
11 | O=C1CCCC(O)=C1C(=O)c1nc2ccccc2n(-c2ccc(O)cc2)c1=O [II-51] | – | – | – | – | – | 5 | 5 | 5 | 5 | 4 | 5
